Source: PubChem BioAssay AID2060490 (Molecular Pharmacology Branch, DTP, NCI, 2025)
Each block holds one compound with its values, some of them ahead of it.

System: 885512-296-R-J2-PDC complex spheroid viability
Assay: Anticancer human tumor 885512-296-R-J2-PDC patient-derived breast carcinoma cell line growth inhibition [GQUAD]
Conditions: for IC50: curve of first compound; for viability, T/C: stronger effect = lower value
How it was run: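 Tumor cells were grown as complex spheroids with HUVEC endothelial cells and mesenchymal stem cells as stroma. G-quadruplex stabilizers were combined with targeted agents over half-log dilutions from near the clinical Cmax, or from 10 microM.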

[1] = second compound 0.0316 µM, first compound 0.0316 µM
[2] = second compound 0.0316 µM, first compound 0.1 µM
[3] = second compound 0.0316 µM, first compound 0.316 µM
[4] = second compound 0.0316 µM, first compound 1 µM
[5] = second compound 0.0316 µM, first compound 3.16 µM
[6] = second compound 0.0316 µM, first compound 10 µM
[7] = second compound 0.1 µM, first compound 0.0316 µM
[8] = second compound 0.1 µM, first compound 0.1 µM
[9] = second compound 0.1 µM, first compound 0.316 µM
[10] = second compound 0.1 µM, first compound 1 µM
[11] = second compound 0.1 µM, first compound 3.16 µM
[12] = second compound 0.1 µM, first compound 10 µM
[13] = second compound 0.316 µM, first compound 0.0316 µM
[14] = second compound 0.316 µM, first compound 0.1 µM
[15] = second compound 0.316 µM, first compound 0.316 µM
[16] = second compound 0.316 µM, first compound 1 µM
[17] = second compound 0.316 µM, first compound 3.16 µM
[18] = second compound 0.316 µM, first compound 10 µM
[19] = second compound 1 µM, first compound 0.0316 µM
[20] = second compound 1 µM, first compound 0.1 µM
[21] = second compound 1 µM, first compound 0.316 µM
[22] = second compound 1 µM, first compound 1 µM
[23] = second compound 1 µM, first compound 3.16 µM
[24] = second compound 1 µM, first compound 10 µM
[25] = second compound 3.16 µM, first compound 0.0316 µM
[26] = second compound 3.16 µM, first compound 0.1 µM
[27] = second compound 3.16 µM, first compound 0.316 µM
[28] = second compound 3.16 µM, first compound 1 µM
[29] = second compound 3.16 µM, first compound 3.16 µM
[30] = second compound 3.16 µM, first compound 10 µM
[31] = second compound 10 µM, first compound 0.0316 µM
[32] = second compound 10 µM, first compound 0.1 µM
[33] = second compound 10 µM, first compound 0.316 µM
[34] = second compound 10 µM, first compound 1 µM
[35] = second compound 10 µM, first compound 3.16 µM
[36] = second compound 10 µM, first compound 10 µM
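Further: spheroids exposed to the compounds for one week.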
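Wherever viability, T/C is given: percent of tumor spheroid viability relative to DMSO vehicle control wells.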

IC50 (second compound 0.0316 µM): < 31.6 nM
IC50 (second compound 0.1 µM): < 31.6 nM
IC50 (second compound 0.316 µM): < 31.6 nM
IC50 (second compound 1 µM): < 31.6 nM
IC50 (second compound 3.16 µM): < 31.6 nM
IC50 (second compound 10 µM): < 31.6 nM
Compound: CC(C)n1c(=O)n(C)c2cnc3cc(F)c(-c4ccc(OCCCN5CCCCC5)nc4)cc3c21 + Cc1cnc(CNC(=O)c2c(=O)c3ccc(N4CCCN(C)CC4)nc3n3c2sc2ccccc23)cn1
viability, T/C [1]: 28.4%
viability, T/C [2]: 20.2%
viability, T/C [3]: 26.6%
viability, T/C [4]: 39.4%
viability, T/C [5]: 46.5%
viability, T/C [6]: 49.1%
viability, T/C [7]: 15%
viability, T/C [8]: 16.6%
viability, T/C [9]: 24%
viability, T/C [10]: 18.1%
viability, T/C [11]: 31.6%
viability, T/C [12]: 30.8%
viability, T/C [13]: 13.3%
viability, T/C [14]: 13.1%
viability, T/C [15]: 12.6%
viability, T/C [16]: 16.9%
viability, T/C [17]: 14.6%
viability, T/C [18]: 19.5%
viability, T/C [19]: 18.1%
viability, T/C [20]: 16.6%
viability, T/C [21]: 16.4%
viability, T/C [22]: 18%
viability, T/C [23]: 23.2%
viability, T/C [24]: 12.4%
viability, T/C [25]: 21.9%
viability, T/C [26]: 23.4%
viability, T/C [27]: 21.7%
viability, T/C [28]: 21.8%
viability, T/C [29]: 24.8%
viability, T/C [30]: 9.39%
viability, T/C [31]: 0.15%
viability, T/C [32]: 0.19%
viability, T/C [33]: 0.2%
viability, T/C [34]: 0.17%
viability, T/C [35]: 0.16%
viability, T/C [36]: 0.16%

IC50 (second compound 0.0316 µM): 318 nM
IC50 (second compound 0.1 µM): 187 nM
IC50 (second compound 0.316 µM): < 31.6 nM
IC50 (second compound 1 µM): < 31.6 nM
IC50 (second compound 3.16 µM): < 31.6 nM
IC50 (second compound 10 µM): < 31.6 nM
Compound: COc1cc(C2c3cc4c(cc3C(OC3OC5COC(C)OC5C(O)C3O)C3COC(=O)C23)OCO4)cc(OC)c1O (centres undefined) + Cc1cnc(CNC(=O)c2c(=O)c3ccc(N4CCCN(C)CC4)nc3n3c2sc2ccccc23)cn1
viability, T/C [1]: 80.8%
viability, T/C [2]: 81%
viability, T/C [3]: 48%
viability, T/C [4]: 22.8%
viability, T/C [5]: 13.4%
viability, T/C [6]: 10.5%
viability, T/C [7]: 57.2%
viability, T/C [8]: 55.8%
viability, T/C [9]: 45%
viability, T/C [10]: 28%
viability, T/C [11]: 13.7%
viability, T/C [12]: 11.4%
viability, T/C [13]: 26%
viability, T/C [14]: 34.3%
viability, T/C [15]: 23.3%
viability, T/C [16]: 24.1%
viability, T/C [17]: 16.4%
viability, T/C [18]: 8.65%
viability, T/C [19]: 29%
viability, T/C [20]: 21.8%
viability, T/C [21]: 23.6%
viability, T/C [22]: 21.1%
viability, T/C [23]: 21.3%
viability, T/C [24]: 14.2%
viability, T/C [25]: 34%
viability, T/C [26]: 28.4%
viability, T/C [27]: 29.6%
viability, T/C [28]: 23.5%
viability, T/C [29]: 22.3%
viability, T/C [30]: 17.7%
viability, T/C [31]: 0.09%
viability, T/C [32]: 0.17%
viability, T/C [33]: 0.18%
viability, T/C [34]: 0.15%
viability, T/C [35]: 0.16%
viability, T/C [36]: 0.18%
